IC50 data for 23 compounds are collected here from patent publication US11192891B2, “Diazaspiro ROCK inhibitors” (BRISTOL-MYERS SQUIBB COMPANY, priority 2017, dated 2021).

As a reminder, the IC50 is the midpoint of a concentration-inhibition curve.

The structures appear in SMILES notation.

The target in this experiment is ROCK2 (Homo sapiens, UniProt O75116). The experiment in a line: ROCK kinase inhibition assay, FITC peptide substrate, LABCHIP 3000 readout. The note with it: 5 μM ATP, 1.5 μM peptide substrate. The experiment is classed as biochemical. As to the method: Compounds were dissolved in DMSO so that the final concentration of DMSO was <2%, and the reaction was initiated with Rho kinase variants. After incubation, the reaction was terminated by the addition of EDTA and the phosphorylated and non-phosphorylated peptides separated using a LABCHIP® 3000 Reader (Caliper Life Sciences). […] Compounds were tested in dose-response format, and the inhibition of kinase activity was calculated at each concentration of compound.
ROCK2, sequence (O75116 whole entry, species assumed): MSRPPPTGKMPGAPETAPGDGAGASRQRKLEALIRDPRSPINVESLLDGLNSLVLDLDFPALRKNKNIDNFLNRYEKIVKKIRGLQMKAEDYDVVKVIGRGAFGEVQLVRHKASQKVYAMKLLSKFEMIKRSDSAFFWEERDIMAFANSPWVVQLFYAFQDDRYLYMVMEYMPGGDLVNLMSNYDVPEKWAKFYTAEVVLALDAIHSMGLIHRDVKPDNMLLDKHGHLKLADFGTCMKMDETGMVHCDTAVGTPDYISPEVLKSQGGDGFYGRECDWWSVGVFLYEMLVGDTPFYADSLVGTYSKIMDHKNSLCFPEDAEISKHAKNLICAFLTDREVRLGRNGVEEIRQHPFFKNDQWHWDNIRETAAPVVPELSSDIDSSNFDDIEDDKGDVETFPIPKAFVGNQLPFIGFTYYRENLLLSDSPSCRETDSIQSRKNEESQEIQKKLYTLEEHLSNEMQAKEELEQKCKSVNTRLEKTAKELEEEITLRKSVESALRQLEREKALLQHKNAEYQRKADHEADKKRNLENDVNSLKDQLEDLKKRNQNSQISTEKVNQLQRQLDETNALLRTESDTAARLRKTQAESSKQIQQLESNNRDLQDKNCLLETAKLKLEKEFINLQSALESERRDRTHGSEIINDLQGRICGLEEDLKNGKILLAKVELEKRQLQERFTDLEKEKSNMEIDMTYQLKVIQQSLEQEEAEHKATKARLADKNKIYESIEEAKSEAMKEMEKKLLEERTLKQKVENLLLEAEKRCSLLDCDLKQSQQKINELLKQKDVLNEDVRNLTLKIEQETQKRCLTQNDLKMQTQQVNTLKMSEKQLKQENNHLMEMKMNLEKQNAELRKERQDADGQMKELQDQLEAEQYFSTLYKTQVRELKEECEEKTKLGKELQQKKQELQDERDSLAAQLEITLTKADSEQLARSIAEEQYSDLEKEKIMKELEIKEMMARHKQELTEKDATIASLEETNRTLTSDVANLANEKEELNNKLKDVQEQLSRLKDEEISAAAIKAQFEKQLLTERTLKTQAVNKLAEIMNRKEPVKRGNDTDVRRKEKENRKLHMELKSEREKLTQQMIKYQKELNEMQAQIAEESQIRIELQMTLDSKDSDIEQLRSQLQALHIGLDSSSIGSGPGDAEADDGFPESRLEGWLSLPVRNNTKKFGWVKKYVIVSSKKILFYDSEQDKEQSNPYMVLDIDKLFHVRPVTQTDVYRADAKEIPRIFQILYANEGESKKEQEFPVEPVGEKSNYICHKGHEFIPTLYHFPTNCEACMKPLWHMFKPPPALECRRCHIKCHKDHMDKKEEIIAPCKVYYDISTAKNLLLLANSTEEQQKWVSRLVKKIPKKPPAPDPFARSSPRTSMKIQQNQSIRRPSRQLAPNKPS

In turn, `COc1cc(N2CCC3(CCN(C(=O)c4cc(C(C)C)n[nH]4)CC3)C2=O)ccc1-c1cn[nH]c1` [Example 110, 2-[3-methoxy-4-(1H-pyrazol-4-yl)phenyl]-8-[3-(propan-2-yl)-1H-pyrazole-5-carbonyl]-2,8-diazaspiro[4.5]decan-1-one] gave an IC50 of 34 nM.

Consider `COc1cc(N2CCC3(CCN(C(=O)c4cnc(C)cn4)CC3)C2=O)ccc1-c1cn[nH]c1` [Example 79, 2-[3-methoxy-4-(1H-pyrazol-4-yl)phenyl]-8-(5-methylpyrazine-2-carbonyl)-2,8-diazaspiro[4.5]decan-1-one], for which the IC50 was determined as 110 nM.

Regarding `COc1cc(N2CCC3(CCN(C(=O)c4ccn5nc[nH]c(=O)c45)CC3)C2=O)ccc1-c1cn[nH]c1` [Example 202, 2-[3-methoxy-4-(1H-pyrazol-4-yl)phenyl]-8-{4-oxo-3H,4H-pyrrolo[2,1-f][1,2,4]triazine-5-carbonyl}-2,8-diazaspiro[4.5]decan-1-one], the concentration for half-maximal inhibition (IC50) was found to be 5.4 nM.

The compound `CN1CCN(c2ccc(C(=O)N3CCC4(CC3)CCN(c3ccc(-c5ccc6cn[nH]c6c5)cc3)C4=O)cc2)CC1` [Example 34, 2-[4-(1H-indazol-6-yl)phenyl]-8-[4-(4-methylpiperazin-1-yl)benzoyl]-2,8-diazaspiro[4.5]decan-1-one] gave a half-maximal inhibitory concentration (IC50) of 106 nM.

`COc1cc(-c2cn[nH]c2)ccc1C(=O)N1CCC2(CC1)CCN(c1ccc(-c3cn[nH]c3)c(OC)c1)C2=O` [Example 159, 8-[2-methoxy-4-(1H-pyrazol-4-yl)benzoyl]-2-[3-methoxy-4-(1H-pyrazol-4-yl)phenyl]-2,8-diazaspiro[4.5]decan-1-one] came in with a concentration for half-maximal inhibition (IC50) of 29 nM.

Compound `COc1cc(N2CCC3(CCN(C(=O)c4ccc(N5CCNC5=O)cc4)CC3)C2=O)ccc1-c1cn[nH]c1` [Example 139, 2-[3-methoxy-4-(1H-pyrazol-4-yl)phenyl]-8-[4-(2-oxoimidazolidin-1-yl)benzoyl]-2,8-diazaspiro[4.5]decan-1-one] came in with a concentration for half-maximal inhibition (IC50) of 3.7 nM.

Regarding `COc1cc(N2CCC3(CCN(C(=O)c4ccc(N5CCN(Cc6csnn6)CC5)cc4)CC3)C2=O)ccc1-c1cn[nH]c1` [Example 224, 2-[3-methoxy-4-(1H-pyrazol-4-yl)phenyl]-8-(4-{4-[(1,2,3-thiadiazol-4-yl)methyl]piperazin-1-yl}benzoyl)-2,8-diazaspiro[4.5]decan-1-one], the IC50 came to 1.5 nM.

Regarding `COc1ccc2cc(C(=O)N3CCC4(CC3)CCN(c3ccc(-c5cn[nH]c5)c(OC)c3)C4=O)ccc2c1` [Example 176, 2-[3-methoxy-4-(1H-pyrazol-4-yl)phenyl]-8-(6-methoxynaphthalene-2-carbonyl)-2,8-diazaspiro[4.5]decan-1-one], the half-inhibitory concentration (IC50) came out at 20 nM.

Consider `COc1cccc(C(=O)N2CCC3(CCN(c4ccc(-c5cn[nH]c5)cc4)C3=O)C2)c1` (centres unmarked) [Example 44, 7-(3-methoxybenzoyl)-2-[4-(1H-pyrazol-4-yl)phenyl]-2,7-diazaspiro[4.4]nonan-1-one], for which half-maximal inhibition (IC50) was put at 444 nM.

As for `COCCN1Cc2cccc(C(=O)N3CCC4(CC3)CCN(c3ccc(-c5cn[nH]c5)c(OC)c3)C4=O)c2C1=O` [Example 204, 2-[3-methoxy-4-(1H-pyrazol-4-yl)phenyl]-8-[2-(2-methoxyethyl)-3-oxo-2,3-dihydro-1H-isoindole-4-carbonyl]-2,8-diazaspiro[4.5]decan-1-one], the concentration for half-maximal inhibition (IC50) came to 50 nM.

For the compound `COc1cc(N2CCC3(CCN(C(=O)c4ccncc4)CC3)C2=O)ccc1-c1cn[nH]c1` [Example 56, 2-[3-methoxy-4-(1H-pyrazol-4-yl)phenyl]-8-(pyridine-4-carbonyl)-2,8-diazaspiro[4.5]decan-1-one], the IC50 was 433 nM.

`COc1cc(N2CCC3(CCN(C(=O)c4ccc5c(c4)ncn5C)CC3)C2=O)ccc1-c1cn[nH]c1` [Example 164, 2-[3-methoxy-4-(1H-pyrazol-4-yl)phenyl]-8-(1-methyl-1H-1,3-benzodiazole-5-carbonyl)-2,8-diazaspiro[4.5]decan-1-one] yielded a concentration for half-maximal inhibition (IC50) of 2.6 nM.

`COc1cc(N2CCC3(CCN(C(=O)c4ccc(-n5ccnc5)cc4)CC3)C2=O)ccc1-c1cn[nH]c1` [Example 95, 8-[4-(1H-imidazol-1-yl)benzoyl]-2-[3-methoxy-4-(1H-pyrazol-4-yl)phenyl]-2,8-diazaspiro[4.5]decan-1-one] displayed a concentration for half-maximal inhibition (IC50) of 13 nM.

`COc1cc(N2CCC3(CCN(C(=O)c4ccc(-n5ccncc5=O)cc4)CC3)C2=O)ccc1-c1cn[nH]c1` [Example 146, 2-[3-methoxy-4-(1H-pyrazol-4-yl)phenyl]-8-[4-(2-oxo-1,2-dihydropyrazin-1-yl)benzoyl]-2,8-diazaspiro[4.5]decan-1-one] displayed an IC50 of 12 nM.

For `COc1ccccc1C(=O)N1CCC2(CCN(c3ccc(-c4cn[nH]c4)cc3)C2=O)C1` (centres unmarked) [Example 43, 7-(2-methoxybenzoyl)-2-[4-(1H-pyrazol-4-yl)phenyl]-2,7-diazaspiro[4.4]nonan-1-one], it took 2560 nM to reach half-maximal inhibition (IC50).

In turn, `COc1cc(N2CCC3(CCN(C(=O)c4ccc5c(c4)OCO5)CC3)C2=O)ccc1-c1cn[nH]c1` [Example 69, 8-(2H-1,3-benzodioxole-5-carbonyl)-2-[3-methoxy-4-(1H-pyrazol-4-yl)phenyl]-2,8-diazaspiro[4.5]decan-1-one] registered a 50% inhibitory concentration (IC50) of 93 nM.

The compound `COc1cc(N2CCC3(CCN(C(=O)c4ccc(-c5cncnc5)cc4)CC3)C2=O)ccc1-c1cn[nH]c1` [Example 135, 2-[3-methoxy-4-(1H-pyrazol-4-yl)phenyl]-8-[4-(pyrimidin-5-yl)benzoyl]-2,8-diazaspiro[4.5]decan-1-one] had an IC50 of 10 nM.

`COc1cc(N2CCC3(CCN(C(=O)c4ccc5nc(C(F)(F)F)cnc5c4)CC3)C2=O)ccc1-c1cn[nH]c1` [Example 138, 2-[3-methoxy-4-(1H-pyrazol-4-yl)phenyl]-8-[2-(trifluoromethyl)quinoxaline-6-carbonyl]-2,8-diazaspiro[4.5]decan-1-one] yielded an IC50 of 63 nM.

Regarding `COc1cc(N2CCC3(CCN(C(=O)c4ccc(-c5ccccc5)o4)CC3)C2=O)ccc1-c1cn[nH]c1` [Example 85, 2-[3-methoxy-4-(1H-pyrazol-4-yl)phenyl]-8-(5-phenylfuran-2-carbonyl)-2,8-diazaspiro[4.5]decan-1-one], the IC50 was found to be 851 nM.

For `COc1cc(N2CCC3(CCN(C(=O)c4ccc(N5CCOCC5)cc4)CC3)C2=O)ccc1-c1cn[nH]c1` [Example 94, 2-[3-methoxy-4-(1H-pyrazol-4-yl)phenyl]-8-[4-(morpholin-4-yl)benzoyl]-2,8-diazaspiro[4.5]decan-1-one], the IC50 worked out at 2 nM.

As to `COc1ccc2cc(C(=O)N3CCC4(CC3)CCN(c3ccc(-c5cn[nH]c5)c(OC)c3)C4=O)n(C)c2c1` [Example 170, 8-(6-methoxy-1-methyl-1H-indole-2-carbonyl)-2-[3-methoxy-4-(1H-pyrazol-4-yl)phenyl]-2,8-diazaspiro[4.5]decan-1-one], half-maximal inhibition (IC50) was put at 118 nM.

In the case of `COc1cc(N2CCC3(CCN(C(=O)c4ccc(N)cc4Cl)CC3)C2=O)ccc1-c1cn[nH]c1` [Example 189, 8-(4-amino-2-chlorobenzol)-2-[3-methoxy-4-(1H-pyrazol-4-yl)phenyl]-2,8-diazaspiro[4.5]decan-1-one], the concentration for half-maximal inhibition (IC50) was found to be 38 nM.

`COc1ccc(C(=O)N2CCC3(CC2)CCN(c2ccc(-c4cn[nH]c4)c(OC)c2)C3=O)c(OCc2ccccc2)c1` [Example 184, 8-[2-(benzyloxy)-4-methoxybenzoyl]-2-[3-methoxy-4-(1H-pyrazol-4-yl)phenyl]-2,8-diazaspiro[4.5]decan-1-one] had an IC50 of 12 nM.
